Experimental data as given in US20060160869A1, “Ubiquitin ligase inhibitors” (Rigel Pharmaceuticals, Inc., priority 2005, published 2006).
Read-outs that look alike come from different tables or passages of the source.

How the values were obtained:
[1] = target: E3 (His-APC11/APC2, "APC") (Homo sapiens, UniProt Q9NYG5+Q9UJX6); experiment: Plate-based E3 ligase assay (APC FLAG), auto-ubiquitination; assay type: biochemical
Protocol: (§1) E3 (His-APC11/APC2—“APC”) auto-ubiquitination was measured as described in U.S. patent application Ser. No. 09/826,312 (Publication No. US-2002-0042083-A1), which is incorporated herein in its entirety. Details of the protocol are described below. Activity in the presence of the compound was determined relative to a parallel control in which only DMSO was added. Values of the IC50 were typically determined using 6 or 8 different concentrations of the compound, although as few as 2 concentrations may be used to approximate the IC50 value.
(§2) Nickel-coated 96-well plates (Pierce 15242) were blocked for 1 hour with 100 μl of blocking buffer at room temperature. The plates were washed 4 times with 225 μl of 1×PBS and 80 μl of the reaction buffer were added that contained 100 ng/well of Flag-ubiquitin. To this, 10 μl of the test compound diluted in DMSO were added. After the test compound was added, 10 μl of E1 (human), E2 (Ubch5c), and APC in Protein Buffer was added to obtain a final concentration of 5 ng/well of E1, 20 ng/well: of E2 and 100 ng/well of APC. The plate were shaken for 10 minutes and incubated at room temperature for 1 hour. After incubation, the plates were washed 4 times with 225 μl of 1×PBS and 100 μl/well of Antibody Mix were added to each well. The plates were incubate at room temperature for another hour after which they were washed 4 times with 225 μl of 1×PBS and 100 μl/well of Lumino substrate were added to each well. The luminescence was measured by using a BMG luminescence microplate reader.
APC Plate/gel is Anaphase Promoting Complex. This protein also belongs to E3 RING finger ligase group.

H1299 cells = experiment: PAD anti-proliferation assay, H1299; assay type: cell-based; conditions: Homo sapiens, NCI-H1299, 48 hours
Protocol: A549 (ATCC# CCL 185), HeLa (ATCC# CCL 2), HCT116 (ATCC# CCL-247), and H 1299 (ATCC# CRL-5803) cells were maintained in T175 flasks following the ATCC recommended media and handling procedures. Flasks reaching approximately 70% confluency were trypsinized and resuspended in RPMI media (Cell Gro catalog number 10 040 CM) modified to contain 5% FBS, 100 ug/mlPen/Strep (Cell Gro catalog number 30 002 CL), and 0.3 mg/ml L Glutamine (Cell Gro catalog number 25 003 CL). A 20,000 cells/ml solution was made for plating. Cells were plated in black Packard 96 well plates by placing 100 μl per well (2,000 cells per well).
Compounds and additional media were added 24′ hours after cell plating. A compound master plate was created with concentrations 500 times greater than the final concentration added to the cells. All compound testing was done in duplicate using 3 fold dilutions starting with 10 mM. All outside wells (and 4 internal wells) were DMSO controls. Taxol and at least one additional control were run on all plates. Three microliters of the compound master plate were added to deep well blocks containing 750 μl of RPMI media. One hundred microliters were transferred from the compound/media deep well blocks to the plated cells resulting in a 500 fold dilution of the compounds. Cells were grown at 37° C., 5% CO2 for 48 hours.
Cells to be analyzed by photography were fixed and stained. One hundred microliters of media were removed and 100 μl of 2% paraformaldehyde was added to each well. Plates were left on the benchtop for 45 minutes. A staining solution containing 1.55 μl of 1 mg/ml DAPI added to 18.75 ml PBS was warmed for 15 minutes at 37° C. The cells were aspirated prior to washing with 100 μl of PBS. Seventy microliters of PBS were aspirated and 170 μl of the DAPI solution were added to each well of fixed cells. Plates were left at room temperature for one hour then aspirated and washed twice with 100 μl of PBS. The stained cells were left at 4° C. for a minimum of 16 hours before photographic analysis with Array Scan II (Cellomics). Analysis of the photographic images to determine numbers of live cells (proliferation), apoptotic cells and dead cells, were according to the methods described in U.S. Provisional Patent Application Ser. No. 60/406,714, which incorporated herein in its entirety.

MDM2 = MDM2 (Homo sapiens, UniProt Q00987); experiment: Plate-based E3 ligase assay, MDM2 autoubiquitination (MDM2-FLAG); assay type: biochemical
Protocol: as §1, §2
In similar manner, autoubiquitination of the E3 MDM2 was determined (MDM2-FLAG). Further instruction in such assays can be found in U.S. patent application Ser. No. 10/108,767 (Publication No. US-2003-0104474 A1), which is incorporated herein in its entirety.
hMDM2 Plate/Gel is Mouse double minute 2, human homolog. This protein belongs to the E3 RING finger ligase group.

[2] = test system: p53 reporter system in p53 wild-type U2OS cell line; experiment: p53-dependent transcription reporter assay, U20SRE; assay type: cell-based; conditions: p53 +ve cell type; maximal fold induction over DMSO control
Text: Stable lines of U2OS (osteosarcoma; Wild-type p53 positive), HCT116 (colorectal carcinoma; Wild-type p53 positive) and H1299 (lung non-small cell carcinoma; p53 null) carrying p53-dependent transcriptional regulatory element linked to a Luciferase reporter gene and H1299 carrying a 5′-regulatory region of GADD45 linked to Luciferase were used.
Day 1: Cells were re-plated into 96-well plates at suitable densities to make 50-60% confluence on Day 2. The plating densities are as follows: 7.5×10^3 cells/well (or 2.5×10^4 cells/cm^2) for U2OS; 1.5×10^4 cells/well (or 5.0×10^4 cells/cm^2) for HCT116; and 1.0×10^4 cells/well (or 3.3×10^4 cells/cm^2) for H1299.
Day 2: The compounds or control drugs were diluted in dimethyl sulfoxide (DMSO) and added to the wells to create 6-points/2-fold serial dilution (20, 10, 5, 2.5, 1.25, 0.625 and 0 μM) for each compound. The DMSO concentration was adjusted to 0.2% in all wells.
Day 3: Twenty to 24 hours after compound addition, cells were twice washed with PBS and lysed with Glo-lysis buffer (100 μl/well, Promega; Cat#E2661). Plates were subjected to gentle agitation on a table-top shaker for 5 minutes at room temperature. Fifty μl of lysate was transferred to an assay plate to test for luciferase activity and mixed with 2× assay buffer (Promega; Cat# E1483). The reaction mixture was left at room temperature for 2 minutes and then luminescence was measure by a luminometer (Victor™, 1420 Multilabel Counter, Wallac).
Data analysis was done on Excel software (Microsoft). Values in Table 4 represent maximal fold induction over negative control (DMSO only) and are the mean of at least duplicate experiments.
U20SRE is a p53 wild-type U2OS cell line containing p53 reporter system. If the compound acts against MDM2, p53 activity increases.

[3] = Table 3, read-out: APC Plate IC50
[4] = Table 3, read-out: MDM2 Plate IC50

Chain of MDM2 (Q00987 whole entry): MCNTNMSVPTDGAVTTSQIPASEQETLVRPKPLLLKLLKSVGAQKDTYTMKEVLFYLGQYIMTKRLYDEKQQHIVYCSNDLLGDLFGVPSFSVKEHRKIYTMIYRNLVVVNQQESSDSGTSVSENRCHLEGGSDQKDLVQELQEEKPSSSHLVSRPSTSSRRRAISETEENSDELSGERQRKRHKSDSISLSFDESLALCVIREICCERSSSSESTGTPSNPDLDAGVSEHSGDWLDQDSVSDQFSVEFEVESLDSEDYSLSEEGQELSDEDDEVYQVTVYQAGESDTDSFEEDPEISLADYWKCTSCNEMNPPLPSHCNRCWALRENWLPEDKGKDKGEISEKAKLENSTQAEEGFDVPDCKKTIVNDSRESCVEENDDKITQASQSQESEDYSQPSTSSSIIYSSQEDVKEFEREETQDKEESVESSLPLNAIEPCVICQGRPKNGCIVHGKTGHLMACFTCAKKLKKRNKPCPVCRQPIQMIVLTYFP
Chain of E3 (His-APC11/APC2, "APC") (Q9NYG5 whole entry): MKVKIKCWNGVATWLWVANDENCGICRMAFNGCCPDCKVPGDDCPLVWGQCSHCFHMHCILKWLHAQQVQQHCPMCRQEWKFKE
Chain of E3 (His-APC11/APC2, "APC") (Q9UJX6 whole entry): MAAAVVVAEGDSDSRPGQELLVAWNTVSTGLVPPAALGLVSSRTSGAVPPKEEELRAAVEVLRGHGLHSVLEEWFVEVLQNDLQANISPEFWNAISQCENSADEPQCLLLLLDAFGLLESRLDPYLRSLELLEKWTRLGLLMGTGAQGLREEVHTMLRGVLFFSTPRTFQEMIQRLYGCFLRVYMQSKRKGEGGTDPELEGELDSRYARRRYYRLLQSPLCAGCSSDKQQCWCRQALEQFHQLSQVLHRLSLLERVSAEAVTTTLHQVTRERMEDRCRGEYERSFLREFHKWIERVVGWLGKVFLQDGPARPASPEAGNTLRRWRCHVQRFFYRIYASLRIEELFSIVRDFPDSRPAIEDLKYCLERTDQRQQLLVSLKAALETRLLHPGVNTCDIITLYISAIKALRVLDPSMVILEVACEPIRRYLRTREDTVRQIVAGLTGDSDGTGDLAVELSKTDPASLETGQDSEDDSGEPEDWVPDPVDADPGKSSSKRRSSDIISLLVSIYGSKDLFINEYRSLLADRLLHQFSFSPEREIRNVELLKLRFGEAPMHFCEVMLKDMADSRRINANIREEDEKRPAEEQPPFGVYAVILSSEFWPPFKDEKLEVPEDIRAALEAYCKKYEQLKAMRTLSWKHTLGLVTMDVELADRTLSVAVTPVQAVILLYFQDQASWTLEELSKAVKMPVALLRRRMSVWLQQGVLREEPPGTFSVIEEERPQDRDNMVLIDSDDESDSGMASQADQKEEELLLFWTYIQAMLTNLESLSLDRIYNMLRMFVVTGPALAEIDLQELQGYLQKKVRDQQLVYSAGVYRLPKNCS

Structure (SMILES)	IC50 ([1]; Table 2, read-out: APC IC50)	IC50 [1, 3]	IC50 (H1299 cells)	IC50 (MDM2; Table 2, read-out: MDM2 IC50)	IC50 (MDM2; [4])	Fold Induction of p53 activity, U20SRE [2]
O=C(c1ccc(CN(CCOc2ccccc2)c2nc(-c3ccc(Cl)c(Cl)c3)cs2)cc1)N1CCNCC1 [compound 360]	1 to 20 µM	1 to 20 µM	1 to 20 µM	1 to 20 µM	< 1 µM	b (b means greater than 2)
COc1cccc(-c2csc(N(CCOc3ccccc3)Cc3ccc(C(=O)N4CCNCC4)cc3)n2)c1 [compound 352]	1 to 20 µM	≥ 20 µM	1 to 20 µM	1 to 20 µM	1 to 20 µM	b (b means greater than 2)
COc1cccc(-c2csc(N(Cc3ccc(C(=O)N4CCNCC4)cc3)Cc3cccc(OC(F)(F)F)c3)n2)c1 [compound 351]	1 to 20 µM	1 to 20 µM	1 to 20 µM	1 to 20 µM	1 to 20 µM	b (b means greater than 2)
COc1cccc(CN(Cc2ccc(C(=O)N3CCNCC3)cc2)c2nc(-c3ccc(Br)cc3)cs2)c1OC [compound 353]	1 to 20 µM	1 to 20 µM	1 to 20 µM	1 to 20 µM	1 to 20 µM	a (a means 2 or less)
O=C(c1ccc(CN(Cc2cccc(OC(F)(F)F)c2)c2nc(-c3ccccc3)cs2)cc1)N1CCNCC1 [compound 275]	1 to 20 µM	1 to 20 µM	1 to 20 µM	1 to 20 µM	1 to 20 µM	b (b means greater than 2)
O=C(c1ccc(CN(Cc2cccc(OC(F)(F)F)c2)c2nc(-c3ccc4ccccc4c3)cs2)cc1)N1CCNCC1 [compound 282, 4-(2-naphthyl)-N-[4-(piperazin-1-ylcarbonyl)benzyl]-N-[3-(trifluoromethoxy)benzyl]-1,3-thiazol-2-amine]	1 to 20 µM	1 to 20 µM	1 to 20 µM	1 to 20 µM	1 to 20 µM	b (b means greater than 2)
